US12161650B2, “Pharmaceutical compositions comprising a ryanodine receptor modulator and uses thereof” (priority 2021, dated 2024)
Values joined by “and” are separate entries in the source; they are usually repeats but may differ in a detail not shown here. Equal entries are not always repeated. Where two headings read alike, the source gives them in different places.

Assay: Phase 1b study in RYR1-Related Myopathy patients, plasma pharmacokinetics
Format: in vivo, human (RYR1-Related Myopathy patients)
Conditions: for Ctrough_D13 / concentration at 13 day: Day 13 trough; for concentration at 13 day: read-out: Ctrough_D13; for half-life: read-out: t½ (converted)
Procedure: A Phase 1b study is performed in RYR1-Related Myopathy (RYR1-RM) affected individuals. Compound I was administered in a gastro-resistant tablet according to Example 3 at daily doses. The formulation comprised 20 mg Compound I (based on the mass of 4-[(7-methoxy-2,3-dihydro-1,4-benzothiazepin-4(5H)yl)methyl]benzoic acid). The first three participants were dosed with 120 mg of Compound I (6×20 mg tablets) daily for approximately 28 days. The second group was dosed with 200 mg of Compound I (10×20 mg tablets daily for approximately 28 days. Bloods for PK assessments were at baseline (Day 0, 24h PK), at the study mid-point (day 14±2 days, trough PK), and at the final study visit (day 28, 24h PK). Pharmacokinetic analysis was performed on plasma samples. PK parameters are set forth below: [table]

[1] = 120 mg oral daily for 28 days, Day 28, n 3, Max
[2] = 120 mg oral daily for 28 days, Day 28, n 3, Median
[3] = 120 mg oral daily for 28 days, Day 28, n 3, Min
[4] = 120 mg oral daily for 28 days, Day 28, n 3, arithmetic mean
[5] = 120 mg oral daily for 28 days, Day 28, n 3, geometric mean
[6] = human, plasma, po, 120 mg, 120 mg oral daily for 28 days, Day 28, n 3, arithmetic mean
[7] = human, plasma, po, 120 mg, 120 mg oral daily for 28 days, Day 28, n 3, geometric mean

COc1ccc2c(c1)CN(Cc1ccc(C(=O)O)cc1)CCS2.O=C(O)/C=C/C(=O)O [Compound I, 4-[(7-methoxy-2,3-dihydro-1,4-benzothiazepin-4(5H)yl)methyl]benzoic acid hemifumarate]
AUC0-tau [1]: 287 µg·h/mL
Cmax, ss [1]: 21.3 µg/mL
Cmin [1]: 7.76 µg/mL
Tmax, ss [1]: 6.00 h
Tmin [1]: 24.00 h
Cmin [2]: 7.020 µg/mL
Tmin [2]: 24.000 h
AUC0-tau [3]: 243 µg·h/mL
Cmax, ss [3]: 16.9 µg/mL
Cmin [3]: 5.80 µg/mL
Tmin [3]: 1.00 h
Cmin [4]: 6.860 µg/mL
Tmin [4]: 16.333 h
Cmin [5]: 6.811 µg/mL
Tmin [5]: 8.320 h
RA_AUC (120 mg oral daily, AUCtau Day 28/AUC0-24 Day 1, n 3, Max): 1.64
RA_AUC (120 mg oral daily, AUCtau Day 28/AUC0-24 Day 1, n 3, Median): 1.618
RA_AUC (120 mg oral daily, AUCtau Day 28/AUC0-24 Day 1, n 3, Min): 1,50
RA_AUC (120 mg oral daily, AUCtau Day 28/AUC0-24 Day 1, n 3, arithmetic mean): 1.587
RA_Cmax (120 mg oral daily, Cmax Day 28/Cmax Day 1, n 3, Max): 1.72
RA_Cmax (120 mg oral daily, Cmax Day 28/Cmax Day 1, n 3, Median): 1.523
RA_Cmax (120 mg oral daily, Cmax Day 28/Cmax Day 1, n 3, Min): 1.21
RA_Cmax (120 mg oral daily, Cmax Day 28/Cmax Day 1, n 3, arithmetic mean): 1.485
Ctrough_D13 (120 mg oral daily, n 3, Median): 8.040 µg/mL
Ctrough_D13 (120 mg oral daily, n 3, Min): 6.71 µg/mL
Ctrough_D13 (120 mg oral daily, n 3, geometric mean): 7.97 µg/mL
Time of Cmin, individual values (120 mg oral daily, Day 28, 1 for 1 subject, 24 for two subjects): 1 h and 24 h
Tmax,ss, individual values (120 mg oral daily, Day 28, 4 for two participants, 6 for the third subject): 6 h
AUC (human, plasma, po, 120 mg, 120 mg oral daily for 28 days, Day 28, n 3, Median, read-out: AUC0-tau): 285 µg·h/mL
Cmax (human, plasma, po, 120 mg, 120 mg oral daily for 28 days, Day 28, n 3, Median, read-out: Cmax, ss): 19.8 µg/mL
Tmax (human, plasma, po, 120 mg, 120 mg oral daily for 28 days, Day 28, n 3, Median, read-out: Tmax): 4 h
Cmax at 28 days [6]: 19.3 µg/mL
Tmax at 28 days [6]: 4.67 h
AUC (human, plasma, po, 120 mg, 120 mg oral daily for 28 days, Day 28, n 3, arithmetic mean, read-out: AUC0-tau): 272 µg·h/mL
Cmax at 28 days [7]: 19.2 µg/mL
Tmax at 28 days [7]: 4.58 h
AUC (human, plasma, po, 120 mg, 120 mg oral daily for 28 days, Day 28, n 3, geometric mean, read-out: AUC0-tau): ~271 µg·h/mL
Cmax (human, plasma, po, 120 mg, 120 mg oral daily for 28 days, Day 28, n 3, geometric mean, read-out: Cmax, ss): ~19.2 µg/mL
concentration at 13 day (human, plasma, po, 120 mg, 120 mg oral daily, n 3, Max): 9.4 µg/mL
concentration at 13 day (human, plasma, po, 120 mg, 120 mg oral daily, n 3, arithmetic mean): 8.05 µg/mL
concentration at 13 day (human, plasma, po, 120 mg, 120 mg oral daily, n 3, geometric mean): 7.97 µg/mL
Tmax (human, plasma, po, 120 mg, 120 mg oral daily, Day 28, 4 for two participants, 6 for the third subject, read-out: Tmax,ss, individual values): 4 h
AUC (human, plasma, po, 120 mg, 120 mg oral daily, Day 28, read-out: AUC0-tau, individual values): 243 to 287 µg·h/mL
Cmax (human, plasma, po, 120 mg, 120 mg oral daily, Day 28, read-out: Cmax,ss, individual values): 16.9 to 21.3 µg/mL
concentration at 28 day (human, plasma, po, 120 mg, 120 mg oral daily, Day 28, read-out: Cmin, individual values): 5.8 to 7.76 µg/mL
AUC(0-t) (human, plasma, po, 120 mg, single oral 120 mg, Day 1, three subjects, Median, read-out: AUC0-24): 175 µg·h/mL
AUC(0-inf) (human, plasma, po, 120 mg, single oral 120 mg, Day 1, three subjects, Median, read-out: AUC0-inf): 274 µg·h/mL
AUC(0-t) (human, plasma, po, 120 mg, single oral 120 mg, Day 1, three subjects, Median, read-out: AUC0-t): 175 µg·h/mL
Cmax (human, plasma, po, 120 mg, single oral 120 mg, Day 1, three subjects, Median, read-out: Cmax): 12.4 µg/mL
Tmax (human, plasma, po, 120 mg, single oral 120 mg, Day 1, three subjects, Median, read-out: Tmax): 3 h
half-life (human, plasma, po, 120 mg, single oral 120 mg, Day 1, three subjects, Median): 14.4 h
AUC(0-t) (human, plasma, po, 120 mg, single oral 120 mg, Day 1, three subjects, arithmetic mean, read-out: AUC0-24): 172 µg·h/mL
AUC(0-inf) (human, plasma, po, 120 mg, single oral 120 mg, Day 1, three subjects, arithmetic mean, read-out: AUC0-inf): 259 µg·h/mL
AUC(0-t) (human, plasma, po, 120 mg, single oral 120 mg, Day 1, three subjects, arithmetic mean, read-out: AUC0-t): 172 µg·h/mL
Cmax (human, plasma, po, 120 mg, single oral 120 mg, Day 1, three subjects, arithmetic mean, read-out: Cmax): 13.3 µg/mL
Tmax (human, plasma, po, 120 mg, single oral 120 mg, Day 1, three subjects, arithmetic mean, read-out: Tmax): 3 h
half-life (human, plasma, po, 120 mg, single oral 120 mg, Day 1, three subjects, arithmetic mean): 14.1 h
AUC(0-t) (human, plasma, po, 120 mg, single oral 120 mg, Day 1, three subjects, geometric mean, read-out: AUC0-24): 171 µg·h/mL
AUC(0-inf) (human, plasma, po, 120 mg, single oral 120 mg, Day 1, three subjects, geometric mean, read-out: AUC0-inf): 257 µg·h/mL
AUC(0-t) (human, plasma, po, 120 mg, single oral 120 mg, Day 1, three subjects, geometric mean, read-out: AUC0-t): 171 µg·h/mL
Cmax (human, plasma, po, 120 mg, single oral 120 mg, Day 1, three subjects, geometric mean, read-out: Cmax): ~13.1 µg/mL
Tmax (human, plasma, po, 120 mg, single oral 120 mg, Day 1, three subjects, geometric mean, read-out: Tmax): 3 h
half-life (human, plasma, po, 120 mg, single oral 120 mg, Day 1, three subjects, geometric mean): 14.1 h
AUC(0-inf) (human, plasma, po, 120 mg, single oral 120 mg, Day 1, read-out: AUC0-inf, individual values): 212 to 290 µg·h/mL
AUC(0-t) (human, plasma, po, 120 mg, single oral 120 mg, Day 1, read-out: AUC0-t, individual values): 150 to 190 µg·h/mL
